{"source": "paper PMC10724293", "about": "“New ruthenium-xanthoxylin complex eliminates colorectal cancer stem cells by targeting the heat shock protein 90 chaperone” (Cell Death & Disease, 2023)", "key": {"HCT116 cells [1]": {"test_system": "HCT116 cells", "assay": "Protein expression levels by flow cytometry", "assay_type": "cell-based, human", "settings": "10 μM, 24 h", "description": "Flow cytometry was used to measure protein expression levels using primary antibodies conjugated with specific fluorochromes, as detailed in Table S5. For intracellular protein staining, cells were collected and resuspended in 0.5–1 ml of 4% formaldehyde for 10 min at 37 °C. The tubes were then kept on ice for 1 min and permeabilized for 30 min on ice by slowly adding ice-cold 100% methanol to prechilled cells while gently vortexing to a final concentration of 90% methanol. After washing with incubation buffer (0.5% bovine serum albumin in PBS), antibodies were added and incubated at room temperature for 1 h. Finally, the cells were washed with PBS, and the fluorescence of the cells was measured using flow cytometry.\nFor cell surface protein staining, cells were washed with incubation buffer (0.5% bovine serum albumin in PBS), and then antibodies were added and incubated for 1 h at room temperature. The cells were then washed with PBS, and cell fluorescence was measured using flow cytometry. To select viable cells for quantification of CD133-positive cells, YO-PRO-1 (Sigma-Aldrich Co.) was used.\nFor all flow cytometry analyses, cell fluorescence was measured with a BD LSRFortessa cytometer and analyzed by BD FACSDiva Software (BD Biosciences) and FlowJo Software 10 (FlowJo LLC; Ashland, OR, USA). At least 10,000 events were evaluated per sample for intracellular staining, and at least 30,000 events were acquired per sample for cell surface protein staining. FSC-A versus FCS-H and SCC-A versus SCC-H were used to remove the doublets. The analysis excluded cellular debris."}, "[2]": {"test_system": "CR04 (malignant papillary mesothelioma)", "assay": "Alamar blue viability of primary cancer cells", "assay_type": "cell-based, human", "settings": "primary papilliferous malignant mesothelioma; 25 μg/ml (RXC 31.3 μM, DOX 46 μM); 96 h", "description": "(§1) The Alamar blue assay was used to determine cell viability as previously described. Cells were seeded into 96-well plates at a density of 7 × 10^3 cells per well for adherent cells or 3 × 10^4 cells per well for suspended cells. The drug was added to each well after 24 h of incubation for adherent cells or immediately for suspended cells and incubated for an additional 72 h. […] Each well received 100 µM resazurin (Sigma-Aldrich Co. St. Louis, MO, United States) four (for cell lines) or 24 (for primary culture) h before the end of the incubation. A SpectraMax 190 Microplate Reader (Molecular Devices, Sunnyvale, CA, USA) was used to measure absorbance at 570 and 600 nm.\n(§2) CR03 (metastatic cholangiocarcinoma) CR04 (malignant papillary mesothelioma) […]\n(§3) Figure S1. […] Cells were exposed to 25 […]\n(§4) measured after 96 h using the Alamar blue assay. The data are presented as the […]\n(§5) mean ± S.E.M. of four replicates. * P < 0.05 compared to CTL by one-way ANOVA […]\n(§6) followed by Dunnett's multiple comparisons test. […]"}, "[3]": {"test_system": "CR01 (colorectal carcinoma)", "assay": "Alamar blue viability of primary cancer cells", "assay_type": "cell-based, human", "settings": "primary CRC (first listed); 25 μg/ml (RXC 31.3 μM, DOX 46 μM); 96 h", "description": "as §1, §2, §3, §4, §5, §6"}, "[4]": {"test_system": "CR03 (metastatic cholangiocarcinoma)", "assay": "Alamar blue viability of primary cancer cells", "assay_type": "cell-based, human", "settings": "25 μg/ml (RXC 31.3 μM, DOX 46 μM), 96 h", "description": "as §1, §2, §3, §4, §5, §6"}, "HCT116 cells [5]": {"test_system": "HCT116 cells", "assay": "CRC tumor growth xenograft model", "assay_type": "in vivo, C. B-17 SCID mice", "settings": "2 mg/kg i.p. once a day for 2 weeks; control 0.81 ± 0.09 g", "description": "HCT116 cells (10^7 cells/500 μl) were inoculated subcutaneously into the left front armpit of mice, as previously reported. The animals were then treated intraperitoneally (200 μl/animal) once a day for 2 weeks. […] The animals were euthanized with an anesthetic overdose (thiopental, 100 mg/kg) 1 day after treatment ended, and tumors were excised, weighed, and processed for histological analysis. The inhibition ratio (percent) was calculated as follows: inhibition ratio (percent) = [(A − B)/A] × 100, where A is the average tumor weight of the negative control and B is the treated group."}}, "data": [{"substance": "cis-[Ru(phen)2(xant)](PF6) [RXC]", "values": [{"measurement": "E-cadherin expression", "setting": "HCT116 cells [1]", "value": "increased"}, {"measurement": "LC3B expression", "setting": "HCT116 cells [1]", "value": "increased"}, {"measurement": "expression level of 4EBP1 (pT36/pT45)", "setting": "HCT116 cells [1]", "value": "decreased"}, {"measurement": "expression level of Akt1", "setting": "HCT116 cells [1]", "value": "decreased"}, {"measurement": "expression level of Akt (pS473)", "setting": "HCT116 cells [1]", "value": "decreased"}, {"measurement": "expression level of Akt (pT308)", "setting": "HCT116 cells [1]", "value": "no change"}, {"measurement": "expression level of GSK-3β (pS9)", "setting": "HCT116 cells [1]", "value": "decreased"}, {"measurement": "expression level of NF-κB p65 (pS529)", "setting": "HCT116 cells [1]", "value": "decreased"}, {"measurement": "expression level of PI3K p85/p55 (pT458/pT199)", "setting": "HCT116 cells [1]", "value": "no change"}, {"measurement": "expression level of S6 (pS235/pS236)", "setting": "HCT116 cells [1]", "value": "no change"}, {"measurement": "expression level of elF4E (pS209)", "setting": "HCT116 cells [1]", "value": "no change"}, {"measurement": "expression level of mTOR (pS2448)", "setting": "HCT116 cells [1]", "value": "decreased"}, {"measurement": "expression of Hsp90 protein", "setting": "HCT116 cells [1]", "value": "decreased"}, {"measurement": "levels of PARP cleavage (Asp214)", "setting": "HCT116 cells [1]", "value": "increased"}, {"measurement": "p62/SQSTM1 expression", "setting": "HCT116 cells [1]", "value": "decreasing"}, {"measurement": "vimentin expression", "setting": "HCT116 cells [1]", "value": "decreased"}, {"measurement": "reduced cell viability", "setting": "[2]", "value": 79.6, "unit": "%"}, {"measurement": "reduced cell viability", "setting": "[3]", "value": 79.8, "unit": "%"}, {"measurement": "reduced cell viability", "setting": "[4]", "value": 79.2, "unit": "%"}, {"measurement": "mean weight of tumors", "setting": "HCT116 cells [5]", "value": "0.6 ± 0.05", "unit": "g"}]}]}
